The record followed here is US20260364088A1, “TASL MIMICKING MOLECULES AND APPLICATIONS THEREOF” (CEMM - FORSCHUNGSZENTRUM FÜR MOLEKULARE MEDIZIN GMBH, priority 2022, published 2026).

The target in assay [1] is SLC15A4-GFP (Homo sapiens, UniProt Q8N697). Kind of assay: SLC15A4-GFP levels when expressed alone in HEK293T cells. It is filed as cell-based. The note with it: 10 µM, 24 h. Here is the method:
Cells transfected with TASL-V5 plasmid were stained for V5-tag and detected with deep red Alexa Fluor 647 secondary antibody to allow for selection in the presence of an mCherry reporter. Cells were measured either immediately after staining or in the case of live cells immediately after harvesting and washing with PBS. Data were acquired on a BD FACSCalibur (BD Biosciences) and analyzed with FlowJo software (version 10).
For live cell imaging cells were plated in PhenoPlate 96-well plates or Ibidi m-Slide 8 (Ibidi) wells at 16 k/well and incubated over-night. Then compounds were added, if indicated, and cells were imaged after 24 h of incubation. Cells were stained with LysoTracker Deep Red L12492 (ThermoFisher) and Hoechst 34580 (ThermoFisher). […] Images were analyzed with Fiji-ImageJ.
Encouraged by the fact that the chemical entity of the present invention was showing the desired behavior and specificity profile, it became important to better clarify the molecular basis of this uncommon mechanism of action, i.e interference with a highly specific protein interaction leading to degradation of a single complex component. The effect of dTASL1 on complex assembly was first monitored. […]

In assay [2] the target is T1, THP1 dual cell (Homo sapiens, UniProt Q8N697).
T1 construct: R848 (TLR7/8)-stimulated ISRE reporter
Kind of assay: THP1 DUAL/ISRE cell reporter assay (R848 stimulated). It is filed as cell-based. The protocol:
CAL-1, THP1 or human primary cells were incubated with dTASL1 and other identified compounds (or the corresponding volume of DMSO vehicle) for 24 h or 48 h at the indicated concentration and subsequently stimulated with R848 (5 μg/ml) for the indicated time. Supernatant or cells were recovered for ELISA, SDS-PAGE or microscopy-based analysis.
THP1 DUAL cells (1×10^5 cells per 96 well) were incubated with compounds for 24 h or 48 h, and subsequently stimulated for 20 h as indicated. Cell culture supernatant were collected, cleared of residual cells by centrifugation and analyzed for NF-κB and ISRE reporter activity according to the manufacturer's instructions. For experiments in 384-well format, compounds were pre-plated at defined concentrations and THP1 dual cells were added at 800 k/well concentration in […]. After incubation for 24 h or 48 h cells were stimulated with […] of a 25 μg/ml stock of R848 or 0.5 μg/ml Pam3CKS4 5× stocks as indicated for 20 h and detected by directly adding Quanti-Luc Plus (Invivogen) solution to the plates, according to the manufacturer's instructions and without adding stabilizer solution. Quanti-Blue detection was carried out according to the manifacturers instructions, with QB reagent and buffer (Invivogen) dissolved in 30 ml water, instead of the 100 ml used for standard detection.
Based on potency and kinetics, the compound C5 was selected for further characterization (FIG. 2E). C5 is an elongated molecule comprised of an aromatic 2-(4-ethoxyphenyl)-quinoline moiety followed by an amide bond and an aliphatic 2-methyl-1-propylpiperidine (FIG. 2F). To validate the scaffold and explore the chemical space at the aliphatic end of the compound, five analogues and an independently synthesized batch of C5 were obtained. […] Therefore the C5 compound was selected, which was named dTASL1 as its activity leads to TASL degradation, to assess effects on TLR7/8-induced signaling and responses.
The following compounds were assayed for their activity in the degradation assay (THP1 DUAL/ISRE cell reporter assay), as described herein: […]

Assay [3] relates to IRF5. As to the kind of experiment: IRF5 nuclear translocation in CD19^+ B cells of PBMCs (confocal microscopy). The note with it: primary B cells, dTASL1 10 µM 24 h, R848 (5 μg/ml) 3 h, n=7. The format is cell-based, human. Here is the method:
PBMCs were treated for 24 h with DMSO or dTASL1 (10 µM) and thereafter stimulated with 5 μg/ml R848 (Invivogen) for three hours or left unstimulated. Cells were harvested and stained for 30 minutes with PE-conjugated anti-CD19 antibodies (BioLegend, #302254, 1:200 in PBS/2% FBS) on ice and fixed with 4% formaldehyde in PBS for 15 minutes at RT. Permeabilization and staining for NF-κB p65 and IRF5 and counterstaining was performed as for CAL-1 and cells were seeded at a concentration of 3×10^4 cells/well onto 384-well imaging plates. Images were acquired on a PerkinElmer Opera Phenix HCS spinning disc confocal microscope and analyzed as described above with the additional identification of B cells based on CD19 membrane staining intensity. This protocol also applies to the cells obtained from SLE patients.
Given that all evidence obtained seems to confirm the mechanistic precision of this chemical agent, any further consideration of assessing the therapeutic potential required evidence for activity in human primary cells relevant for SLE pathophysiology. The effect of dTASL1 in human peripheral blood mononuclear cells (PBMCs) was assessed. […] It has been previously shown that the SLC15A4-TASL module was required for TNF production in primary human monocytes. […] The impact of dTASL1 on TLR7/8 responses by directly monitoring IRF5 by confocal microscopy in B cells was assessed.

Like-named read-outs stand apart in the source and are kept apart here.

T1 sequence (Q8N697 whole entry): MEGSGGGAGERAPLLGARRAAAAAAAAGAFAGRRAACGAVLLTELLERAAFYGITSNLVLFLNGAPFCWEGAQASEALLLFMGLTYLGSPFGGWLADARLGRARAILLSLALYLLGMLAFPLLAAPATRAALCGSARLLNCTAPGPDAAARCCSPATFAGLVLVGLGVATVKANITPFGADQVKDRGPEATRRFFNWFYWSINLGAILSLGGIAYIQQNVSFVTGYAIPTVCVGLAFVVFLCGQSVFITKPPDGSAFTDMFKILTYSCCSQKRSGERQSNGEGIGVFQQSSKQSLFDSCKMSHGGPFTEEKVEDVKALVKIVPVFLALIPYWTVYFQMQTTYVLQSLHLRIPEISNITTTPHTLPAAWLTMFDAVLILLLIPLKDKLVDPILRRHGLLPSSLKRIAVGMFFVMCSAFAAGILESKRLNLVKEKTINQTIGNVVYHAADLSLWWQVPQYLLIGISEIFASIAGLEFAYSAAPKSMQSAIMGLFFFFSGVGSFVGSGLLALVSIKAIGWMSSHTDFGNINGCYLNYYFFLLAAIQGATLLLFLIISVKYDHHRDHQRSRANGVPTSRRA
SLC15A4-GFP, sequence (Q8N697 whole entry): as above

On to `CCOc1ccc(-c2cc(C(=O)NCCCN3CCCCC3C)c3ccccc3n2)cc1` (stereo not shown) [dTASL1, 2-(4-ethoxyphenyl)-N-(3-(2-methylpiperidin-1-yl)propyl) quinoline-4-carboxamide], for which the “total levels of SLC15A4-GFP” value in assay [1] is “did not affect total levels of SLC15A4-GFP”. For the same compound, the IC50 in assay [2] (24 h treatment before R848 stimulation, read-out: IC50 24 h) worked out at 2230 nM; in assay [2] (48 h treatment before R848 stimulation, read-out: IC50 48 h), 933 nM. The IRF5 nuclear translocation entry in assay [3] is on record as “significantly reduced IRF5 nuclear translocation”.
